Data reported in ChEMBL document CHEMBL4402527, “Recent advances in the development of cyclin-dependent kinase 7 inhibitors” (Eur J Med Chem, 2019).

Tests used:
[1] = target: T1, Cyclin-dependent kinase 1 (Homo sapiens, UniProt P06493); experiment: Inhibition of CDK1 (unknown origin) by luciferase reporter gene assay
CDK7/Cyclin H/MNAT1 = CDK7/Cyclin H/MNAT1 (Homo sapiens, UniProt P50613); experiment: Inhibition of CDK7/CycH/MAT1 (unknown origin) by luciferase reporter gene assay; assay type: protein-complex assay
Chain of CDK7/Cyclin H/MNAT1 (P51946 whole entry): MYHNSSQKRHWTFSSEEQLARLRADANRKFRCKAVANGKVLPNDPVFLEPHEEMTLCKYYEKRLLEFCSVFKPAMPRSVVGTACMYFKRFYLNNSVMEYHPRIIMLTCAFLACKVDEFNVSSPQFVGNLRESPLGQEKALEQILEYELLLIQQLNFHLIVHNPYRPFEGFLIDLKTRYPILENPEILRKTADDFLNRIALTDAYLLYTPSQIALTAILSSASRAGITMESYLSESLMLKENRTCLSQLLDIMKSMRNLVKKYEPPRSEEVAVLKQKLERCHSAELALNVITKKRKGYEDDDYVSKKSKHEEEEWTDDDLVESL
Chain of CDK7/Cyclin H/MNAT1 (P50613 whole entry): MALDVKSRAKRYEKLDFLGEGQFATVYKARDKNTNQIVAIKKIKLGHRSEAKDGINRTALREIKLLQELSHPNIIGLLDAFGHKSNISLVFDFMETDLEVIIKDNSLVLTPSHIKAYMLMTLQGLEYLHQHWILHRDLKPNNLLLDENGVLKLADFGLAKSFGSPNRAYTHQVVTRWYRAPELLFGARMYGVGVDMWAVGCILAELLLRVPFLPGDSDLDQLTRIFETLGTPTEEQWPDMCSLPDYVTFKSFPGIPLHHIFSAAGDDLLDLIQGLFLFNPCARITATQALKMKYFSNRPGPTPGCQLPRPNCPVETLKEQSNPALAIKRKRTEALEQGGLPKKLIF
Chain of CDK7/Cyclin H/MNAT1 (P51948 whole entry, further chain): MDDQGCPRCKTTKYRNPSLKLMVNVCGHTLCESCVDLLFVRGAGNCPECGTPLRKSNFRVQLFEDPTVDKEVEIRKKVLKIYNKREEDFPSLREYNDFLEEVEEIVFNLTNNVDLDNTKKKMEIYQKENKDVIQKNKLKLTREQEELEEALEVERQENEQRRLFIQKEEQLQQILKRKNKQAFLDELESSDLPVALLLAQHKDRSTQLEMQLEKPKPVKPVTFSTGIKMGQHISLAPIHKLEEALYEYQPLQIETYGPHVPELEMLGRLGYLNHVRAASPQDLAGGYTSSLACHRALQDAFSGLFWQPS

[2] = target: Cyclin-dependent kinase 2/cyclin E1 (Homo sapiens, UniProt P24941); experiment: Inhibition of CDK2/cycE1 (unknown origin) by luciferase reporter gene assay; assay type: protein-complex assay
[3] = target: T2, Cyclin-dependent kinase 9 (Homo sapiens, UniProt P50750); experiment: Inhibition of CDK9 (unknown origin) after 4 hrs
T2 sequence (P50750 whole entry): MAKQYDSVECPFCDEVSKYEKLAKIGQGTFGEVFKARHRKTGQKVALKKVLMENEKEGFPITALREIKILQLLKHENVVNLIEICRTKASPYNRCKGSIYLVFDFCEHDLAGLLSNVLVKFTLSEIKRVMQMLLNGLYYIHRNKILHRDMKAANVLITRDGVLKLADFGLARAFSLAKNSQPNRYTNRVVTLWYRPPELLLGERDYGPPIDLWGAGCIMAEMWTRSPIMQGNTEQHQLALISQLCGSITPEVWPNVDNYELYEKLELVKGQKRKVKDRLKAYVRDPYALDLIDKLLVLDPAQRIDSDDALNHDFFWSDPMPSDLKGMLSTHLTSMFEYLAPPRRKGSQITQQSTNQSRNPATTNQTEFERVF

[4] = target: T3, Cyclin-dependent kinase 7 (Homo sapiens, UniProt P50613); experiment: Inhibition of CDK7 (unknown origin) after 4 hrs
T3 sequence (P50613 whole entry): as the sequence (P50613 whole entry) above

[5] = target: T2, Cyclin-dependent kinase 9
[6] = target: T4, Cyclin-dependent kinase 2 (Homo sapiens, UniProt P24941)
[7] = target: T3, Cyclin-dependent kinase 7; experiment: Inhibition of CDK7 (unknown origin)
[8] = target: T5, Cyclin-dependent kinase 6 (Homo sapiens, UniProt Q00534); experiment: Inhibition of CDK6 (unknown origin)
T5 sequence (Q00534 whole entry): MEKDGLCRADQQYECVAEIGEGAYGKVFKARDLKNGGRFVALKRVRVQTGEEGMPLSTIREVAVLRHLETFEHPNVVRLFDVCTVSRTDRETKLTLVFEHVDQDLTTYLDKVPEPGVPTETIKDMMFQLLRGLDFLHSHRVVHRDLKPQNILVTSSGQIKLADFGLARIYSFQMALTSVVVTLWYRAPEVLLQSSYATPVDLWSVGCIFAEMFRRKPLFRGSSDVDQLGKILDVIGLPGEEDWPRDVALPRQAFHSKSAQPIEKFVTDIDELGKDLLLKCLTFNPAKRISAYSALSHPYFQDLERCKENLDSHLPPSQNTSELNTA

[9] = target: T6, Cyclin-dependent kinase 4 (Homo sapiens, UniProt P11802); experiment: Inhibition of CDK4 (unknown origin)
T6 sequence (P11802 whole entry): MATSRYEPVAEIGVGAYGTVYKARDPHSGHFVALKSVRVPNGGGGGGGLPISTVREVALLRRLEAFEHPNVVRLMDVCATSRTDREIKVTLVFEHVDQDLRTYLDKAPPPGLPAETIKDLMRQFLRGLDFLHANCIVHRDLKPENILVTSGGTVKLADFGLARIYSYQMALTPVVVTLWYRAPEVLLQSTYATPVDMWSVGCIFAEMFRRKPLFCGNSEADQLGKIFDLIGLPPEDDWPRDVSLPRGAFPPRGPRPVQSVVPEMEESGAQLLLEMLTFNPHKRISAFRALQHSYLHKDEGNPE

[10] = target: T1, Cyclin-dependent kinase 1
[11] = target: T4, Cyclin-dependent kinase 2; experiment: Inhibition of CDK2 (unknown origin) after 4 hrs
MDA-MB-231 = experiment: Cytotoxicity against human MDA-MB-231 cells assessed as reduction in cell viability; assay type: functional, cell-based
[12] = target: T7, Cyclin-dependent kinase 5 (Homo sapiens, UniProt Q00535); experiment: Inhibition of CDK5 (unknown origin) by luciferase reporter gene assay
T7 sequence (Q00535 whole entry): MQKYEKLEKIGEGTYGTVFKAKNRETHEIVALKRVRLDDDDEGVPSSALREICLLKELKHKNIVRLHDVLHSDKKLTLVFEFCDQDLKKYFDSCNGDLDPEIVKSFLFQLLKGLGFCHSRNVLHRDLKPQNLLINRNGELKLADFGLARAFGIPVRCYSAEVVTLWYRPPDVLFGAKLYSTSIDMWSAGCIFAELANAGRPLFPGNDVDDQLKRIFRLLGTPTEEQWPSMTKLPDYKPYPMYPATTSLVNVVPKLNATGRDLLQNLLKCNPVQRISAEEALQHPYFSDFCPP

[13] = target: T6, Cyclin-dependent kinase 4; experiment: Inhibition of CDK4 (unknown origin) by luciferase reporter gene assay
[14] = target: T5, Cyclin-dependent kinase 6; experiment: Inhibition of CDK6 (unknown origin) by luciferase reporter gene assay
MDA-MB-468 = experiment: Cytotoxicity against human MDA-MB-468 cells assessed as reduction in cell viability; assay type: functional, cell-based
BGC-823 = experiment: Anti-tumor activity against human BGC823 cells xenografted in invivo animal model assessed as reduction in tumor growth at 10 mg/kg, ip relative to control; assay type: functional; details: BGC-823, ip, read-out: TGI
MGC-803 = experiment: Cytotoxicity against human MGC803 cells assessed as reduction in cell viability; assay type: functional, cell-based
AGS = experiment: Cytotoxicity against human AGS cells assessed as reduction in cell viability; assay type: functional, cell-based
[15] = target: T7, Cyclin-dependent kinase 5
Jurkat = experiment: Cytotoxicity against human Jurkat cells assessed as reduction in cell viability; assay type: functional, cell-based
KOPTK1 [16] = experiment: Cytotoxicity against human KOPTK1 cells assessed as reduction in cell viability; assay type: functional, cell-based
KOPTK1 [17] = experiment: Anti-tumor activity against human KOPTK1 cells xenografted in invivo animal model assessed as reduction in tumor growth at 10 mg/kg, ip relative to control; assay type: functional; details: read-out: TGI

T1 sequence (P06493 whole entry): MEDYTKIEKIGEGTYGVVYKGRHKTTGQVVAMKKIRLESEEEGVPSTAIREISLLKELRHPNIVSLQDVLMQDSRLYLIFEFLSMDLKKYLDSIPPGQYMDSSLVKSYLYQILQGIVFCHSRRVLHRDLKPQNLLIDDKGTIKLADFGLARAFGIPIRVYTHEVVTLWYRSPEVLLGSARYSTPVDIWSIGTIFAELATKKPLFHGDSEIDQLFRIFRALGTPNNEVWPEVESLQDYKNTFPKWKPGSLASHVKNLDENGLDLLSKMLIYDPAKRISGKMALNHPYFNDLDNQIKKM

Structure (SMILES): CC(C)c1cnn2c(NCc3ccccc3)cc(NC[C@]3(CO)CCNC3)nc12
- IC50 [1]: 41 nM
- IC50 (CDK7/Cyclin H/MNAT1): 14 nM
- IC50 [2]: 1 nM

Structure (SMILES): CC(C)c1cnn2c(NCc3ccccc3)cc(NCC3CCNCC3)nc12
- IC50 (CDK7/Cyclin H/MNAT1): 310 nM

Structure (SMILES): Clc1cnc(NC2CCCCC2)nc1-c1c[nH]c2cccnc12
- IC50 [3]: 20 to 200 nM
- IC50 [4]: 20 nM

Structure (SMILES): CC(C)c1cnn2c(NCc3cccc4[nH]ncc34)nc(OC3CCCNC3)nc12 (stereo unspecified)
- IC50 [5]: < 50 nM
- IC50 [6]: < 50 nM
- IC50 [7]: < 5 nM

Structure (SMILES): CC(C)c1cnn2c(NCc3ccccc3N(C)C)nc(OC3CCN(C)CC3)nc12
- IC50 [5]: 7450 nM
- IC50 [8]: > 10000 nM
- IC50 [6]: 3900 nM
- IC50 [7]: < 5 nM
- IC50 [9]: > 10000 nM
- IC50 [10]: > 10000 nM

Structure (SMILES): FC(F)(F)c1cnc(N[C@H]2CCCNC2)nc1-c1n[nH]c2ccccc12
- IC50 [3]: 20 to 200 nM
- IC50 [4]: < 20 nM
- IC50 [11]: > 200 nM

Structure (SMILES): CC(C)c1cnn2c(NCc3ccccc3-n3cccn3)nc(OC3CCCNC3)nc12 (stereo unspecified)
- IC50 [5]: 1710 nM
- IC50 [8]: > 10000 nM
- IC50 [6]: 6.4 nM
- IC50 [7]: 0.13 nM
- IC50 [9]: > 10000 nM
- IC50 [10]: 53 nM

Structure (SMILES): C=CC(=O)Nc1ccc(C(=O)Nc2ccc(Nc3n[nH]c4c3CN(C(=O)N[C@H](CN(C)C)c3ccccc3)C4(C)C)cc2)cc1
- IC50 [7]: < 100 nM

Structure (SMILES): CC(C)c1cnn2c(NCc3ccccc3)cc(NC[C@@H]3CCNC[C@H]3O)nc12
- IC50 (MDA-MB-231): 1300 nM
- IC50 [12]: 9000 nM
- IC50 [1]: 1520 nM
- IC50 [13]: 42000 nM
- IC50 [14]: 32100 nM
- IC50 (MDA-MB-468): 1500 nM

Structure (SMILES): CC(C)c1cnn2c(NCc3ccccc3)cc(NC[C@H]3CCCC[C@@H]3O)nc12
- IC50 (CDK7/Cyclin H/MNAT1): 687 nM

Structure (SMILES): C=CC(=O)Nc1ccc(C(=O)Nc2n[nH]c3c2CN(C(=O)N[C@H](CN(C)C)c2ccccc2)C3(C)C)cc1
- IC50 [7]: > 100 nM

Structure (SMILES): CN(C)C/C=C/C(=O)Nc1cccc(C(=O)Nc2cccc(Nc3ncc(Cl)c(-c4c[nH]c5ccccc45)n3)c2)c1
- IC50 [5]: 134 nM
- IC50 [6]: 96.9 nM
- inhibition in vivo at 10 mg/kg (BGC-823): 50%
- IC50 [7]: 27 nM
- IC50 (MGC-803): 740 nM
- IC50 (AGS): 190 nM
- IC50 [15]: 222 nM
- IC50 [10]: 13.9 nM

Structure (SMILES): C=CC(=O)Nc1ccc(C(=O)Nc2cccc(Nc3n[nH]c4c3CN(C(=O)N[C@H](CN(C)C)c3ccccc3)C4(C)C)c2)cc1
- IC50 [7]: 20 nM
- IC50 (Jurkat): 2 nM

Structure (SMILES): CN(C)C/C=C/C(=O)Nc1ccc(C(=O)Nc2cccc(Nc3ncc(Cl)c(-c4c[nH]c5ccccc45)n3)c2)cc1
- IC50 (KOPTK1 [16]): 1 nM
- inhibition in vivo at 10 mg/kg (KOPTK1 [17]): 10%

Structure (SMILES): CC(C)c1cnn2c(NCc3cccc4c3cnn4C)nc(OC3CCCNC3)nc12 (stereo unspecified)
- IC50 [5]: < 50 nM
- IC50 [6]: < 50 nM
- IC50 [7]: < 5 nM

Structure (SMILES): Clc1cnc(N[C@@H]2CCCNC2)nc1-c1c[nH]c2ccccc12
- IC50 [5]: > 200 nM
- IC50 [6]: > 200 nM
- IC50 [7]: 20 to 200 nM

Structure (SMILES): CC(C)c1cnn2c(NCc3ccccc3)cc(NC[C@]3(O)CCNC[C@H]3O)nc12 (racemic)
- IC50 [2]: 2030 nM

Structure (SMILES): Clc1cnc(N[C@H]2CCCNC2)nc1-c1c[nH]c2ccccc12
- IC50 [5]: > 200 nM
- IC50 [6]: > 200 nM
- IC50 [7]: < 20 nM

Structure (SMILES): CN(C)CCCC(=O)Nc1ccc(C(=O)Nc2cccc(Nc3ncc(Cl)c(-c4c[nH]c5ccccc45)n3)c2)cc1
- IC50 [7]: 194 nM
